# Assay results reported in patent US12569467B2, “Small molecules that treat or prevent viral infections” (priority 2022, dated 2026).
# Legend:
# HEK293 cells = conditions: PrestoBlue, various concentrations, within the indicated concentrations (FIG. 3E)
# SARS-CoV2 spike protein = SARS-CoV2 spike protein (Severe acute respiratory syndrome coronavirus 2, UniProt P0DTC2); assay type: binding
structure (smiles),measurement,setting,value
"O=C1Nc2ccccc2/C1=C\c1ccc(-c2cc(C(F)(F)F)cc(C(F)(F)F)c2)o1 [CD04872SC, 3-({5-[3,5-di(trifluoromethyl)phenyl]-2-furyl}methylidene)indolin-2-one]",cell cytotoxicity,HEK293 cells,without major cell cytotoxicity
same,difference of thermal stability (Tm) in presence versus absence of compound,SARS-CoV2 spike protein,about 3 Celsius degrees
